Laboratory results reported in patent US8816109B2, “Process for preparation of hexadecyl cis-9-tetradecenoate and hexadecyl cis-10-tetradecenoate” (Council of Scientific & Industrial Research, priority 2009, dated 2014).

Columns and labels:
[1] = system: Freund's complete adjuvant induced arthritis; assay: Freund's complete adjuvant induced arthritis model, treatment of established arthritis; type: in vivo, Male Wistar rats; conditions: for dose dependence of inhibition of arthritis: dose increased from 100 mg/kg to 300 mg/kg
Protocol: (§1) The anti-inflammatory activity potential of both the isomers of the cetyl myristoleate (4 & 8) was evaluated initially in carrageenan induced rat paw edema model employing the method of Winter et al (Winter C A, Risley E A and Nuss G W, J. Pharmacolo. Exp. Ther. 1963; 141:369-376). The arthritis developed by injecting Freund's Complete Adjuvant in Wistar rats is almost similar to the rheumatoid arthritis of the human beings.
Effect of Hexadecyl cis-9-Tetradecenoate and Hexadecyl cis-10-Tetradecenoate on the Arthritic Rats: The hexadecyl cis-9-tetradecenoate, 4 and hexadecyl cis-10-tetradecenoate, 8 produced synthetically given above in Scheme 1 and 2 were subjected to evaluation for anti-arthritic potential in Freund's complete adjuvant induced arthritis model in rats. Male Wistar rats were divided into 4 groups each containing 6 rats. Arthritis was induced in rats in all the groups by administering Complete Freund's Adjuvant (CFA) at the dose of 1 mg per rat by injecting at sub plantar region of the right hind paw. Paw volumes were measured for both paws on every alternate day till 14 days and till full arthritis was developed.

[2] = system: collagen-induced arthritis; conditions: synthesized pure compound, DBA/1 Lac J mice; cited from earlier work
[3] = system: carrageenan induced paw edema; assay: carrageenan induced rat paw edema model (anti-inflammatory potential); type: in vivo; conditions: rats
Protocol: as §1
Evaluation Studies of Hexadecyl cis-9-Tetradecenoate and Hexadecyl cis-10-Tetradecenoate for Anti-inflammatory. Potential: Hexadecyl cis-9-tetradecenoate, 4 and hexadecyl cis-10-tetradecenoate, 8 produced synthetically exemplified above in Scheme 1 and Scheme 2 were assessed for the anti-inflammatory potential against carrageenan induced paw edema model. Rats were divided into 4 groups. Hexadecyl cis-9-tetradecenoate, 4. and hexadecyl cis-10-tetradecenoate, 8 were administered intraperitoneally to rats in two different groups at a dose of 400 mg/kg. […] Paw volumes were measured using plethysmometer before injecting carrageenan. Paw volumes were again measured 3 hr after the carrageenan administration. The anti-inflammatory potential of hexadecyl cis-9-tetradecenoate, 4 and hexadecyl cis-10-tetradecenoate, 8 were assessed by measuring the inhibition of the paw volumes with reference to mean paw volume in control group.

[4] = system: Freund's Complete Adjuvant induced poly arthritis; assay: Freund's complete adjuvant induced polyarthritis, protection (dosing from 24 hr after adjuvant); type: in vivo, Male Wistar rats
Protocol: Evaluation of Hexadecyl cis-10-Tetradecenoate for Anti-arthritic Potential in Rats: The hexadecyl cis-10-tetradecenoate, 8 produced synthetically exemplified above in Scheme 2 was administered parenterally, particularly, by intraperitoneal route, either alone or in a compatible pharmaceutical carrier such as vegetable oils namely groundnut, sesame and cottonseed [for adjusting the dose volume of the active compound(s)] to male rats ranging in weight from 150 to 180 g. It should be noted that use of the mineral oil is not mandatory as the active compounds are oils themselves. The procedure as described in (Vogel's Drug Discovery and Evaluation Pharmacological assays, 2nd ed, 2002, Springer Verlag, pages 802-803) was followed. Male Wistar-rats were divided into one control and two treated groups. All the animals in three groups received Freund's complete adjuvant (1 mg/rat). This day was designated as day 1. After a period of 24 hr, hexadecyl cis-10-tetradecenoate, 8 was administered at a dose of 300 mg/kg to one treated group and another treated group received 2.5 mg/kg of indomethacin (used as standard drug). Dosing was continued for 15 days (FIG. 3). Control group received the vehicle (mineral oil) without any drug. Paw volumes (left and right) were measured on every alternate day.
All the rats in the control group developed severe polyarthritis as indicated by the increase in the paw volumes. […] Around 80% of the animals in the hexadecyl cis-10-tetradecenoate treated group were protected from developing arthritis in a period of 21 days. The remaining 20% rats were protected from arthritis in a period of 32 days.

Structure (SMILES)	dose dependence of inhibition of arthritis [1]	anti arthritic properties [2]	inhibition of inflammation compared with hexadecyl cis-9-tetradecenoate, 4 [3]	reduction of adjuvant-induced arthritis compared with hexadecyl cis-9-tetradecenoate, 4 ([1]; rats)	animals protected from developing arthritis in a period of 21 days ([4]; 300 mg/kg intraperitoneal, dosing for 15 days)	animals protected from developing arthritis in a period of 21 days ([4]; 300 mg/kg intraperitoneal, dosing for 15 days, listed as hexadecyl cis-10-tetradecenoate)	remaining rats protected from arthritis in a period of 32 days ([4]; 300 mg/kg intraperitoneal, dosing for 15 days, period of 32 days)	protection from polyarthritis (paw volumes) ([4]; 300 mg/kg intraperitoneal, from 24 hr after adjuvant, dosing continued for 15 days)	effective range (dose) for protection of arthritis ([4]; rats, Freund's complete adjuvant)
CCCC/C=C\CCCCCCCC(=O)OCCCCCCCCCCCCCCCC [compound 4, hexadecyl cis-9-tetradecenoate]	dose dependent	confirmed its anti arthritic properties	–	–	–	–	–	–	–
CCC/C=C\CCCCCCCCC(=O)OCCCCCCCCCCCCCCCC [compound 8, hexadecyl cis-10-tetradecenoate]	dose dependent	–	comparable	comparable	Around 80%	80%	20%	protected from the polyarthritis	0.1 to 1.0 gm/kg body weight
